Converted amounts (≈) assume the structure as drawn. Residues, ends and D or L forms follow the SMILES beside them. *: point of attachment. X1 = CC[C@@]1(OCCS*)C(=O)OCc2c1cc1n(c2=O)Cc2cc3ccccc3nc2-1
Tests used:
HCT-116 [1] = test: cells; settings: Homo sapiens, HCT-116, 72 h
Description: Cytotoxicity against human HCT-116 cells assessed as reduction in cell growth incubated for 72 hrs by MTT assay

HepG2 [2] = test: Cytotoxicity against human HepG2 cells assessed as reduction in cell growth incubated for 72 hrs by MTT assay; assay type: functional, cell-based; settings: HepG2, 72 h
HeLa [3] = test: cells; settings: Homo sapiens, 72 h
Description: Cytotoxicity against human HeLa cells assessed as reduction in cell growth incubated for 72 hrs by MTT assay

[4] = Antiproliferative activity against human HCT116-G7 cells assessed as reduction in cell viability measured after 72 hrs by MTT assay; assay type: functional, cell-based; settings: HCT116-G7, 72 h
A549 [5] = test: Antiproliferative activity against human A549 cells assessed as reduction in cell viability measured after 72 hrs by MTT assay; assay type: functional, cell-based; settings: A549, 72 h
HCT-116 [6] = test: Antiproliferative activity against human HCT-116 cells assessed as reduction in cell viability measured after 72 hrs by MTT assay; assay type: functional, cell-based; settings: HCT-116, 72 h
A549 [7] = test: cells; settings: Homo sapiens, A549, 72 h
Description: Cytotoxicity against human A549 cells assessed as reduction in cell growth incubated for 72 hrs by MTT assay

[8] = Antiproliferative activity against human HCT116-SN6 cells assessed as reduction in cell viability measured after 72 hrs by MTT assay; assay type: functional, cell-based; settings: HCT116-SN6, 72 h
[9] = Ratio AUC in mouse tumor to plasma; assay type: ADME, cell-free; settings: tumor and plasma, read-out: Ratio AUC
[10] = Antiproliferative activity against human SK-N-BE(2)-C cells expressing ABCG2 assessed as reduction in cell viability measured for 72 hrs by MTT assay; assay type: functional, cell-based
[11] = Antiproliferative activity against human NLF cells expressing ABCG2 assessed as reduction in cell viability measured for 72 hrs by MTT assay; assay type: functional, cell-based
[12] = Drug recovery in bile duct cannulated rat bile measured for 48 hrs
[13] = Drug recovery in bile duct cannulated rat urine measured for 48 hrs
Neutrophil elastase [14] = molecular target: T1, Neutrophil elastase (Mus musculus, UniProt Q3UP87); test: Inhibition of mouse Neutrophil elastase
T1 sequence (Q3UP87 whole entry): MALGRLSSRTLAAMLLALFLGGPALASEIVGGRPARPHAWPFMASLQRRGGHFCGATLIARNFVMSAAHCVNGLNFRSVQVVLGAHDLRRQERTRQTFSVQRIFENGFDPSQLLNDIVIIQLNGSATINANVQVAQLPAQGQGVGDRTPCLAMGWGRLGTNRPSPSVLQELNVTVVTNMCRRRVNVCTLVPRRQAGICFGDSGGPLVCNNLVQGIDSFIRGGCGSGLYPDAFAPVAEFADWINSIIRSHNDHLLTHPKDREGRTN

Neutrophil elastase [15] = molecular target: T2, Neutrophil elastase (Homo sapiens, UniProt P08246); test: Inhibition of human Neutrophil elastase
T2 sequence (P08246 whole entry): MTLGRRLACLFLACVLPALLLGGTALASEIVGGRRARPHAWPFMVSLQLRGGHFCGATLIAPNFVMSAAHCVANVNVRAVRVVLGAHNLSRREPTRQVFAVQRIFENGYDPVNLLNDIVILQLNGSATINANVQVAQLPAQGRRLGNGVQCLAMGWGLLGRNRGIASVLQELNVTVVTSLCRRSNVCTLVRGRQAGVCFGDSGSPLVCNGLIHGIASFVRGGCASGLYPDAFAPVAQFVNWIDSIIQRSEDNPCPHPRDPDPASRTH

HCT-116 [16] = test: Antitumor activity against human HCT-116 cells xenografted in mouse assessed as tumor growth inhibition at 5 mg/kg administered once for every 2 days for 2 weeks relative to control; assay type: functional; set-up: scale not given: the % may be the effect or the level left; settings: time 2 day
[17] = Stability in human plasma assessed as half life measured upto 24 hrs by UV/LC-MS analysis; assay type: ADME, cell-free
[18] = Aqueous solubility of compound at pH6.5; assay type: physicochemical; settings: pH 6.5
HeLa [19] = test: Cytotoxicity against human HeLa cells assessed as reduction in cell growth measured after 72 hrs by MTT assay; assay type: functional, cell-based
A549 [20] = test: Cytotoxicity against human A549 cells assessed as reduction in cell growth measured after 72 hrs by MTT assay; assay type: functional, cell-based; settings: A549, 72 h
L1210 [21] = test: Cytotoxicity against mouse L1210 cells assessed as reduction in cell growth measured after 72 hrs by MTT assay; assay type: functional, cell-based; settings: L1210, 72 h
HCT-116 [22] = test: Cytotoxicity against human HCT-116 cells assessed as reduction in cell growth measured after 72 hrs by MTT assay; assay type: functional, cell-based; settings: HCT-116, 72 h
[23] = Volume of distribution at steady state in mouse at 5 mg/kg, iv; assay type: ADME, organism-based; settings: in vivo, read-out: Vdss
[24] = Toxicity in po dosed mouse assessed as lethal dose; assay type: organism-based; settings: in vivo
HCT-116 [25] = test: Growth inhibition of human HCT-116 cells incubated for 72 hrs by MTT assay; assay type: functional
HeLa [26] = test: Cytotoxicity against human HeLa cells assessed as reduction in cell viability measured for 48 hrs by MTT assay; assay type: functional, cell-based
A549 [27] = test: cells; settings: Homo sapiens, A549, 48 h
Description: Cytotoxicity against human A549 cells assessed as reduction in cell viability measured after 48 hrs by MTT assay

[28] = Toxicity in iv dosed mouse assessed as lethal dose; assay type: organism-based; settings: in vivo
[29] = Clearance in mouse at 8 mg/kg, iv; assay type: ADME, organism-based; settings: in vivo
K562 [30] = test: Cytotoxicity against human K562 cells assessed as reduction in cell growth incubated for 48 hrs by MTT assay; assay type: functional, cell-based; settings: K562, 48 h
[31] = Primary half life in mouse at 8 mg/kg, iv; assay type: ADME, organism-based; settings: in vivo, read-out: alphat1/2
[32] = Terminal half life in mouse at 8 mg/kg, iv; assay type: ADME, organism-based; settings: in vivo, read-out: beta t1/2
HepG2 [33] = test: Cytotoxicity against human HepG2 cells assessed as cell growth inhibition measured after 48 hrs by MTT assay; assay type: functional, cell-based; settings: HepG2, 48 h
K562 [34] = test: Growth inhibition of human K562 cells incubated for 72 hrs by MTT assay; assay type: functional
L1210 [35] = test: Cytotoxicity against mouse L1210 cells assessed as reduction in cell viability measured for 24 hrs by MTT assay; assay type: functional, cell-based; settings: L1210, 24 h
MCF7 = test: Growth inhibition of human MCF7 cells incubated for 72 hrs by MTT assay; assay type: functional
HCT-116 [36] = test: Cytotoxicity against human HCT-116 cells assessed as reduction in cell viability measured after 48 hrs by MTT assay; assay type: functional, cell-based; settings: HCT-116, 48 h
[37] = AUC in mouse at 8 mg/kg, iv; assay type: ADME, organism-based; settings: in vivo
[38] = Aqueous solubility of compound at pH 7.4; assay type: physicochemical
[39] = Volume of distribution at steady state in mouse at 8 mg/kg, iv; assay type: ADME, organism-based; settings: in vivo, read-out: Vdss
[40] = Toxicity in ip dosed mouse assessed as lethal dose; assay type: organism-based; settings: in vivo
A549 [41] = test: Growth inhibition of human A549 cells incubated for 72 hrs by MTT assay; assay type: functional
HeLa [42] = test: cells; settings: Homo sapiens, 24 h
Description: Cytotoxicity against human HeLa cells assessed as reduction in cell viability measured for 24 hrs by SRB assay

L1210 [43] = test: Cytotoxicity against mouse L1210 cells assessed as reduction in cell viability measured for 24 hrs by SRB assay; assay type: functional, cell-based; settings: L1210, 24 h
L1210 [44] = test: Antiproliferative activity against mouse L1210 cells assessed as inhibition of cell growth incubated for 24 hrs by MTT assay; assay type: functional, cell-based; settings: L1210, 24 h
HepG2 [45] = test: Antiproliferative activity against human HepG2 cells assessed as reduction in cell viability measured for 48 hrs by CCK-8 assay; assay type: functional, cell-based; settings: HepG2, 48 h
HeLa [46] = test: Antiproliferative activity against human HeLa cells assessed as reduction in cell viability measured for 48 hrs by CCK-8 assay; assay type: functional, cell-based
K562 [47] = test: Antiproliferative activity against human K562 cells assessed as reduction in cell viability measured for 48 hrs by CCK-8 assay; assay type: functional, cell-based; settings: K562, 48 h

CC[C@@]1(O)C(=O)OCc2c1cc1n(c2=O)Cc2cc3cc4c(cc3nc2-1)OCO4
IC50 (HCT-116 [1]): 50 ng/mL (≈ 0.127 µM) | IC50 (HepG2 [2]): 104 ng/mL (≈ 0.265 µM) | IC50 (HeLa [3]): 40 ng/mL (≈ 0.102 µM) | EC50 [4]: 4.14 nM | EC50 (A549 [5]): 0.86 nM | EC50 (HCT-116 [6]): 0.36 nM | IC50 (A549 [7]): 43 ng/mL (≈ 0.11 µM) | EC50 [8]: 2.28 nM

CC[C@@]1(O)C(=O)OCc2c1cc1n(c2=O)Cc2cc3ccc(O)cc3nc2-1
Kp [9]: 6.1

CCc1c2c(nc3ccccc13)-c1cc3c(c(=O)n1C2)COC(=O)[C@]3(O)CC
IC50 [10]: 7 nM | IC50 [11]: 80 nM

CCCNC(=O)Nc1cccc(S(=O)(=O)Nc2cccc([C@@H](CC(=O)[O-])NC(=O)Nc3ccc(NC(=O)NCCOCCOCCOCCC(=O)N[C@@H](CC(=O)[O-])C(=O)N4CCC[C@H]4C(=O)N[C@H](C(=O)O[C@]4(CC)C(=O)OCc5c4cc4n(c5=O)Cc5c-4nc4ccccc4c5CC)C(C)C)cc3)c2)c1.[Na+].[Na+]
dose excreted at 48 h [12]: 108% | dose excreted at 48 h [13]: 2.4% | IC50 (Neutrophil elastase [14]): 8900 nM | IC50 (Neutrophil elastase [15]): 9600 nM

CC[C@H](C)[C@H](NC(=O)[C@H](CCCCN)NC(=O)[C@H](CCCCN)NC(=O)[C@H](C)NC(=O)[C@H](CC(C)C)NC(=O)[C@H](C)NC(=O)[C@H](C)NC(=O)[C@H](CC(C)C)NC(=O)[C@@H](NC(=O)[C@H](CCCCN)NC(=O)[C@H](CC(C)C)NC(=O)[C@H](CC(N)=O)NC(=O)[C@H](CCCCN)NC(=O)[C@H](CCCCN)NC(=O)[C@H](CC(C)C)NC(=O)[C@H](CC(C)C)NC(=O)[C@@H](N)CCCCN)C(C)C)C(=O)N[C@@H](CC(C)C)C(=O)NCC(=O)NCC(=O)N[C@@H](CSSCCO[C@]1(CC)C(=O)OCc2c1cc1n(c2=O)Cc2cc3ccccc3nc2-1)C(N)=O (H-KLLKKNLKVLAALAKKILGGC(X1)-NH2)
Activity (HCT-116 [16]): 98.2% | half-life [17]: 2.5 h | solubility [18]: 1.83 µM (≈ 4.81 µg/mL)

CCc1c2c(nc3ccc(O)cc13)-c1cc3c(c(=O)n1C2)COC(=O)[C@]3(O)CC [7-ETHYL-10-HYDROXYCAMPTOTHECIN]
IC50 (HeLa [19]): 22 nM | IC50 (A549 [20]): 1.62 nM | IC50 (L1210 [21]): 8.9 nM | IC50 (HCT-116 [22]): 0.55 nM

CC[C@@]1(O)C(=O)OCc2c1cc1n(c2=O)Cc2c-1nc1ccc(O)cc1c2[Si](C)(C)C(C)(C)C [AR-67]
Vd [23]: 0.73 L/kg

CC[C@@]1(O)C(=O)OCc2c1cc1n(c2=O)Cc2cc3ccccc3nc2-1 [CAMPTOTHECIN]
Activity (HCT-116 [16]): 37.5% | LD50 [24]: 50 mg/kg | GI50 (HCT-116 [25]): 3.86 ng/mL (≈ 0.0111 µM) | IC50 (HCT-116 [1]): 2.01 ng/mL (≈ 0.00577 µM) | IC50 (HeLa [26]): 8.9 nM | IC50 (A549 [27]): 0.32 nM | LD50 [28]: 38 mg/kg | clearance [29]: 38 mL/min/kg | IC50 (K562 [30]): 2 nM | IC50 (HepG2 [2]): 7.25 ng/mL (≈ 0.0208 µM) | half-life [31]: 0.35 h | half-life [32]: 4.6 h | IC50 (HeLa [3]): 8.9 ng/mL (≈ 0.0255 µM) | IC50 (HepG2 [33]): 7.25 nM | EC50 [4]: 20.3 nM | GI50 (K562 [34]): 54.3 ng/mL (≈ 0.156 µM) | EC50 (A549 [5]): 4.17 nM | IC50 (L1210 [35]): 14 nM | EC50 (HCT-116 [6]): 3.15 nM | GI50 (MCF7): 1.98 ng/mL (≈ 0.00568 µM) | IC50 (HCT-116 [36]): 2.01 nM | IC50 (A549 [7]): 0.32 ng/mL (≈ 0.000919 µM) | AUC [37]: 212 µg/mL | solubility [38]: 1.83 µM (≈ 0.637 µg/mL) | EC50 [8]: 7.63 nM | Vd [39]: 10.8 L/kg | LD50 [40]: 38 mg/kg | GI50 (A549 [41]): 5.69 ng/mL (≈ 0.0163 µM)

CC[C@@]1(O)C(=O)OCc2c1cc1n(c2=O)Cc2c-1nc1cc(F)c(C)c3c1c2[C@@H](N)CC3.CS(=O)(=O)O.O.O [EXATECAN MESYLATE]
GI50 (HCT-116 [25]): 0.347 ng/mL | GI50 (K562 [34]): 10.4 ng/mL | GI50 (MCF7): 0.322 ng/mL | GI50 (A549 [41]): 0.914 ng/mL

CCc1c2c(nc3ccc(OC(=O)N4CCC(N5CCCCC5)CC4)cc13)-c1cc3c(c(=O)n1C2)COC(=O)[C@]3(O)CC [IRINOTECAN]
IC50 (HeLa [42]): 122 nM | IC50 (L1210 [43]): 1200 nM

CC[C@@]1(O)C(=O)OCc2c1cc1n(c2=O)Cc2cc3c(CN(C)C)c(O)ccc3nc2-1 [TOPOTECAN]
IC50 (L1210 [44]): 56 nM | IC50 (HepG2 [45]): 60 nM | IC50 (HeLa [46]): 376 nM | IC50 (K562 [47]): 500 nM
